Experimental data: ChEMBL document CHEMBL4043148, “Nitro-substituted tetrahydroindolizines and homologs: Design, kinetics, and mechanism of α-glucosidase inhibition” (Bioorg Med Chem Lett, 2017)
Active and inactive are the calls of the source. No cut-off for these calls is given here.

Assays:
[1] = system: Saccharomyces cerevisiae; experiment: Inhibition of Saccharomyces cerevisiae alpha-glucosidase using 4-nitrophenyl alpha-D-glucopyranoside as substrate at 300 uM preincubated for 5 mins followed by substrate addition measured after 10 mins
[2] = Inhibition of Saccharomyces cerevisiae alpha-glucosidase using 4-nitrophenyl alpha-D-glucopyranoside as substrate preincubated for 5 mins followed by substrate addition measured after 10 mins
[3] = system: Saccharomyces cerevisiae; experiment: Inhibition of Saccharomyces cerevisiae alpha-glucosidase using 4-nitrophenyl alpha-D-glucopyranoside as substrate at 150 uM preincubated for 5 mins followed by substrate addition measured after 10 mins
[4] = system: Saccharomyces cerevisiae; experiment: Reversible inhibition of Saccharomyces cerevisiae alpha-glucosidase up to 15 uM using 4-nitrophenyl alpha-D-glucopyranoside as substrate after 2 mins by Lineweaver-Burk plot analysis
[5] = system: Saccharomyces cerevisiae; experiment: Mixed inhibition of Saccharomyces cerevisiae alpha-glucosidase assessed as Km for substrate up to 10 uM in presence of varying concentrations of 4-nitrophenyl alpha-D-glucopyranoside after 2 mins by Lineweaver-Burk plot analysis (reference value: 0.092 mM)
[6] = system: Saccharomyces cerevisiae; experiment: Mixed inhibition of Saccharomyces cerevisiae alpha-glucosidase assessed as Vmax for substrate up to 10 uM in presence of varying concentrations of 4-nitrophenyl alpha-D-glucopyranoside after 2 mins by Lineweaver-Burk plot analysis (reference value: 23.8 nmol/min/ml)
[7] = Mixed inhibition of Saccharomyces cerevisiae alpha-glucosidase assessed as enzyme inhibitor substrate constant up to 12.5 uM using 4-nitrophenyl alpha-D-glucopyranoside as substrate after 2 mins by Lineweaver-Burk plot analysis
[8] = system: Saccharomyces cerevisiae; experiment: Potency index, ratio of 1-deoxynojirimycin IC50 to compound IC50 for Saccharomyces cerevisiae alpha-glucosidase
[9] = system: Saccharomyces cerevisiae; experiment: Mixed inhibition of Saccharomyces cerevisiae alpha-glucosidase assessed as free-enzyme inhibition constant up to 12.5 uM using 4-nitrophenyl alpha-D-glucopyranoside as substrate after 2 mins by Lineweaver-Burk plot analysis

Row | Structure (SMILES) | IC50 [2] | further results
1 | CS(=O)(=O)Cc1c([N+](=O)[O-])cn2c1CCCCC2 | > 300 µM | inhibition [1]: inactive
2 | CS(=O)(=O)Cc1c([N+](=O)[O-])cn2c1CCC2 | > 150 µM | inhibition [3]: 46%
3 | COC(=O)C(c1c([N+](=O)[O-])cn2c1CCCCC2)S(C)(=O)=O (stereo not drawn) | 124 µM | 
4 | OC[C@H]1NC[C@H](O)[C@@H](O)[C@@H]1O [DUVOGLUSTAT] | 203 µM | 

Stronger by IC50 [2], values ahead:

Row | IC50 [2] | Structure (SMILES) | further results
5 | 72 µM | CS(=O)(=O)Cc1c([N+](=O)[O-])cn2c1CCCC2 | 
6 | 65 µM | COC(=O)C(c1c([N+](=O)[O-])cn2c1CCCC2)S(=O)(=O)Cc1ccc(C)cc1 (stereo not drawn) | 
7 | 48 µM | COC(=O)C(c1c([N+](=O)[O-])cn2c1CCC2)S(C)(=O)=O (stereo not drawn) | 
8 | 29 µM | O=[N+]([O-])c1cn2c(c1CS(=O)(=O)Cc1ccccc1)CCCC2 | 
9 | 19.8 µM | COC(=O)C(c1c([N+](=O)[O-])cn2c1CCCC2)S(=O)(=O)Cc1ccccc1 (stereo not drawn) | 
10 | 8 µM | COC(=O)C(c1c([N+](=O)[O-])cn2c1CCCC2)S(C)(=O)=O (stereo not drawn) | inhibition [4]: Active; Km [5]: 140 µM; Vmax [6]: 10.7 nmol/min/mL; Ki [7]: 7.6 µM; Ratio IC50 [8]: 25; fKi [9]: 3.6 µM
